Results on 17 compounds are retold here after patent US9561212B2, “Hepatitis C virus inhibitors” (BRISTOL-MYERS SQUIBB COMPANY, priority 2012, dated 2017).

Structures are written as SMILES.

In one assay the test system is HCV 1b genotype. The experiment in a line: microbe, parasite or virus in culture. The format is cell-based, Hepatitis C virus. To be noted: HCV 1b replicon; read-out: Range: EC50 ranges against HCV 1b. How it is done:
An HCV Replicon assay was utilized in the present disclosure, and was prepared, conducted and validated as described in commonly owned PCT/US2006/022197 and in O'Boyle et. al. Antimicrob Agents Chemother. 2005 April; 49(4):1346-53. Assay methods incorporating luciferase reporters have also been used as described (Apath.com).
HCV-neo replicon cells and replicon cells containing resistance substitutions in the NS5A region were used to test the currently described family of compounds.
As to `COC(=O)NC(C(=O)N1[C@@H](C)CC[C@H]1c1nc(-c2ccc(-c3ccc(-c4c[nH]c([C@@H]5CC[C@H](C)N5C(=O)C(NC(=O)OC)=C5CC(C)(C#N)C5)n4)cc3)cc2)c[nH]1)=C1CC(C)(C#N)C1` (stereo partly drawn) [Example 12.2, dimethyl (4,4′-biphenyldiylbis(1H-imidazole-4,2-diyl((2S,5S)-5-methyl-2,1-pyrrolidinediyl)(1-(3-cyano-3-methylcyclobutylidene)-2-oxo-2,1-ethanediyl)))biscarbamate], the EC50 fell in the range of 0.9 to 700 nM.

Consider `COC(=O)NC(C(=O)N1CC(C)CC1c1ncc(-c2ccc(C3CC3c3ccc(-c4cnc(C5CC(C)CN5C(=O)C(NC(=O)OC)C5CCOC6(CC6)C5)[nH]4)cc3)cc2)[nH]1)C1CCOC2(CC2)C1` [Example OL1, dimethyl (((3S,3′S,5S,5′S)-5,5′-(5,5′-((1S,2S)-cyclopropane-1,2-diylbis(4,1-phenylene))bis(1H-imidazole-5,2-diyl))bis(3-methylpyrrolidine-5,1-diyl))bis(2-oxo-1-(4-oxaspiro[2.5]octan-7-yl)ethane-2,1-diyl))dicarbamate], for which the EC50 was 0.00501 to 0.1 nM.

For `COC(=O)NC(C(=O)N1C(c2ncc(-c3ccc(C#Cc4ccc(-c5cnc(C6CC7CC7N6C(=O)C(NC(=O)OC)C6CCOC7(CC7)C6)[nH]5)cc4)cc3)[nH]2)CC2CC21)C1CCOC2(CC2)C1` [OL4, dimethyl (((1R,1′R,3S,3′S,5R,5′R)-3,3′-(5,5′-(ethyne-1,2-diylbis(4,1-phenylene))bis(1H-imidazole-5,2-diyl))bis(2-azabicyclo[3.1.0]hexane-3,2-diyl))bis(2-oxo-1-(4-oxaspiro[2.5]octan-7-yl)ethane-2,1-diyl))dicarbamate], the EC50 is 0.00501 to 0.1 nM.

Regarding `COC(=O)NC(C(=O)N1CCCC1c1ncc(-c2ccc(C#Cc3ccc(-c4cnc(C5CCCN5C(=O)C(NC(=O)OC)C5CCOC6(CC6)C5)[nH]4)cc3)cc2)[nH]1)C1CCOC2(CC2)C1` [OL7, dimethyl (((2S,2′S)-2,2′-(5,5′-(ethyne-1,2-diylbis(4,1-phenylene))bis(1H-imidazole-5,2-diyl))bis(pyrrolidine-2,1-diyl))bis(2-oxo-1-(4-oxaspiro[2.5]octan-7-yl)ethane-2,1-diyl))dicarbamate], the EC50 lay in the range of 0.00501 to 0.1 nM.

Staying with this assay, now noted: Hepatitis C virus, HCV 1b replicon; read-out: 1b (μM): EC50 (Effective 50% inhibitory concentration) against the HCV 1b genotype.
With `C#C[C@@H]1CC[C@@H](c2ncc(-c3ccc(-c4ccc(-c5cnc([C@@H]6CC[C@@H](C#C)N6C(=O)[C@@H](NC(=O)OC)C6C[C@@H](C)O[C@H](C)C6)[nH]5)cc4)cc3)[nH]2)N1C(=O)[C@@H](NC(=O)OC)C1C[C@@H](C)O[C@H](C)C1` (stereo partly drawn) [Example 10.1, dimethyl (4,4′-biphenyldiylbis(1H-imidazole-4,2-diyl((2S,5S)-5-ethynyl-2,1-pyrrolidinediyl)((1S)-1-((2R,6R)-2,6-dimethyltetrahydro-2H-pyran-4-yl)-2-oxo-2,1-ethanediyl)))biscarbamate], the EC50 was 0.263 nM.

With `COC(=O)NC(C(=O)N1CCC[C@H]1c1nc(-c2ccc(-c3c[nH]c([C@@H]4CCCN4C(=O)C(NC(=O)OC)C4CCOC5(CC5)C4)n3)cc2)c[nH]1)C1CCOC2(CC2)C1` (stereo partly drawn) [Example QC14, dimethyl (benzene-1,4-diylbis(1H-imidazole-4,2-diyl(2S)pyrrolidine-2,1-diyl(1-(4-oxaspiro[2.5]oct-7-yl)-2-oxoethane-2,1-diyl)))biscarbamate], the EC50 came out at 14.5 nM.

Staying with this assay, now noted: Hepatitis C virus, HCV 1b replicon; read-out: Range: EC50 ranges against HCV 1b.
`C#C[C@H]1CC[C@@H](c2ncc(-c3ccc(-c4ccc(-c5cnc([C@@H]6CC[C@H](C#C)N6C(=O)[C@@H](NC(=O)OC)C6C[C@@H](C)O[C@H](C)C6)[nH]5)cc4)cc3)[nH]2)N1C(=O)[C@@H](NC(=O)OC)C1C[C@@H](C)O[C@H](C)C1` (stereo partly drawn) [Example 10, dimethyl (4,4′-biphenyldiylbis(1H-imidazole-5,2-diyl((2S,5R)-5-ethynyl-2,1-pyrrolidinediyl)((1S)-1-((2R,6R)-2,6-dimethyltetrahydro-2H-pyran-4-yl)-2-oxo-2,1-ethanediyl)))biscarbamate]: the EC50 lay in the range of 0.00501 to 0.1 nM.

Consider `C#C[C@@H]1CC[C@@H](c2ncc(-c3ccc(-c4ccc(-c5cnc([C@@H]6CC[C@@H](C#C)N6C(=O)[C@@H](NC(=O)OC)C6C[C@@H](C)O[C@H](C)C6)[nH]5)cc4)cc3)[nH]2)N1C(=O)[C@@H](NC(=O)OC)C1C[C@@H](C)O[C@H](C)C1` (stereo partly drawn) [Example 10.1, dimethyl (4,4′-biphenyldiylbis(1H-imidazole-4,2-diyl((2S,5S)-5-ethynyl-2,1-pyrrolidinediyl)((1S)-1-((2R,6R)-2,6-dimethyltetrahydro-2H-pyran-4-yl)-2-oxo-2,1-ethanediyl)))biscarbamate], for which the EC50 lay within 0.1 to 0.9 nM.

As to `COC(=O)NC(C(=O)N1[C@@H](C)CC[C@H]1c1nc(-c2ccc(-c3ccc(-c4c[nH]c([C@@H]5CC[C@H](C)N5C(=O)C(NC(=O)OC)=C5CC(C)(C#N)C5)n4)cc3)cc2)c[nH]1)=C1CC(C)(C#N)C1` (stereo partly drawn) [Example 12.1, dimethyl (4,4′-biphenyldiylbis(1H-imidazole-4,2-diyl((2S,5S)-5-methyl-2,1-pyrrolidinediyl)(1-(3-cyano-3-methylcyclobutylidene)-2-oxo-2,1-ethanediyl)))biscarbamate], the EC50 lay within 0.9 to 700 nM.

Regarding `COC(=O)N[C@H](C(=O)N1[C@@H](C)CC[C@H]1c1ncc(-c2ccc(-c3ccc(-c4cnc([C@@H]5CC[C@H](C)N5C(=O)[C@@H](NC(=O)OC)C5CC6(COC6)C5)[nH]4)cc3)cc2)[nH]1)C1CC2(COC2)C1` (stereo partly drawn) [Example 13, dimethyl (4,4′-biphenyldiylbis(1H-imidazole-5,2-diyl((2S,5S)-5-methyl-2,1-pyrrolidinediyl)((1S)-1-(2-oxaspiro[3.3]hept-6-yl)-2-oxo-2,1-ethanediyl)))biscarbamate], the EC50 was 0.00501 to 0.1 nM.

As for `COC(=O)N[C@H](C(=O)N1CC2(CCCC2)C[C@H]1c1nc(-c2ccc(-c3ccc(-c4c[nH]c([C@@H]5CC6(CCCC6)CN5C(=O)[C@@H](NC(=O)OC)C5C[C@@H](C)O[C@H](C)C5)n4)cc3)cc2)c[nH]1)C1C[C@@H](C)O[C@H](C)C1` (stereo partly drawn) [Example JLR-1.0, dimethyl (4,4′-biphenyldiylbis(1H-imidazole-4,2-diyl(3S)-2-azaspiro[4.4]nonane-3,2-diyl((1S)-1-((2R,6R)-2,6-dimethyltetrahydro-2H-pyran-4-yl)-2-oxo-2,1-ethanediyl)))biscarbamate], the EC50 fell in the range of 0.00501 to 0.1 nM.

On to `COC(=O)N[C@H](C(=O)N1C[C@H](CC2CC2)C[C@H]1c1nc(-c2ccc(-c3ccc(-c4c[nH]c([C@@H]5C[C@@H](CC6CC6)CN5C(=O)[C@@H](NC(=O)OC)C5C[C@@H](C)O[C@H](C)C5)n4)cc3)cc2)c[nH]1)C1C[C@@H](C)O[C@H](C)C1` (stereo partly drawn) [Example JLR-2.0, dimethyl (4,4′-biphenyldiylbis(1H-imidazole-4,2-diyl((2S,4R)-4-(cyclopropylmethyl)-2,1-pyrrolidinediyl)((1S)-1-((2R,6R)-2,6-dimethyltetrahydro-2H-pyran-4-yl)-2-oxo-2,1-ethanediyl)))biscarbamate], for which the EC50 was 0.00501 to 0.1 nM.

In the case of `COC(=O)N[C@H](C(=O)N1[C@@H]2C[C@@H]2C[C@H]1c1nc(-c2ccc(-c3ccc(-c4c[nH]c([C@@H]5C[C@H]6C[C@H]6N5C(=O)[C@@H](NC(=O)OC)C5CCC(=O)CC5)n4)cc3)cc2)c[nH]1)C1CCC(=O)CC1` [Example OL10, dimethyl (4,4′-biphenyldiylbis(1H-imidazole-4,2-diyl(1R,3S,5R)-2-azabicyclo[3.1.0]hexane-3,2-diyl((1S)-2-oxo-1-(4-oxocyclohexyl)-2,1-ethanediyl)))biscarbamate], the EC50 lay in the range of 0.1 to 0.9 nM.

Regarding `COC(=O)N[C@H](C(=O)N1[C@@H]2C[C@@H]2C[C@H]1c1nc(-c2ccc(-c3ccc(-c4c[nH]c([C@@H]5C[C@H]6C[C@H]6N5C(=O)[C@@H](NC(=O)OC)C56CC(C(F)(F)F)(C5)C6)n4)cc3)cc2)c[nH]1)C12CC(C(F)(F)F)(C1)C2` [Example OL11, dimethyl (4,4′-biphenyldiylbis(1H-imidazole-4,2-diyl(1R,3S,5R)-2-azabicyclo[3.1.0]hexane-3,2-diyl((1S)-2-oxo-1-(3-(trifluoromethyl)bicyclo[1.1.1]pent-1-yl)-2,1-ethanediyl)))biscarbamate], the EC50 is 0.00501 to 0.1 nM.

Regarding `COC(=O)NC(C(=O)N1CCC[C@H]1c1nc(-c2ccc(-c3c[nH]c([C@@H]4CCCN4C(=O)C(NC(=O)OC)C4CCOC5(CC5)C4)n3)cc2)c[nH]1)C1CCOC2(CC2)C1` (stereo partly drawn) [Example QC14, dimethyl (benzene-1,4-diylbis(1H-imidazole-4,2-diyl(2S)pyrrolidine-2,1-diyl(1-(4-oxaspiro[2.5]oct-7-yl)-2-oxoethane-2,1-diyl)))biscarbamate], the EC50 lay within 0.9 to 700 nM.

As for `COC(=O)NC(C(=O)N(C)[C@@H](C)c1nc2cc(C#Cc3ccc4nc([C@H](C)N(C)C(=O)C(NC(=O)OC)C5CCOC6(CC6)C5)[nH]c4c3)ccc2[nH]1)C1CCOC2(CC2)C1` (stereo partly drawn) [OL2, methyl (2-(((1S)-1-(5-((2-((1S)-1-((((methoxycarbonyl)amino)(4-oxaspiro[2.5]oct-7-yl)acetyl)(methyl)amino)ethyl)-1H-benzimidazol-6-yl)ethynyl)-1H-benzimidazol-2-yl)ethyl)(methyl)amino)-1-(4-oxaspiro[2.5]oct-7-yl)-2-oxoethyl)carbamate], the EC50 was in the range of 0.00501 to 0.1 nM.

In the case of `COC(=O)NC(C(=O)N1[C@@H]2C[C@@H]2C[C@H]1c1ncc(-c2ccc(-c3ccc(-c4cnc([C@@H]5C[C@H]6C[C@H]6N5C(=O)[C@@H](NC(=O)OC)C(C)C)[nH]4)cc3)cc2)[nH]1)C1CCOC2(CC2)C1` (stereo partly drawn) [OL3, methyl ((2S)-1-((1R,3S,5R)-3-(5-(4′-(2-((1R,3S,5R)-2-(((methoxycarbonyl)amino)(4-oxaspiro[2.5]oct-7-yl)acetyl)-2-azabicyclo[3.1.0]hex-3-yl)-1H-imidazol-5-yl)biphenyl-4-yl)-1H-imidazol-2-yl)-2-azabicyclo[3.1.0]hex-2-yl)-3-methyl-1-oxobutan-2-yl)carbamate], the EC50 is 0.00501 to 0.1 nM.

On to `COC(=O)NC(C(=O)N1CCC[C@H]1c1ncc(-c2ccc(-c3ccc(-c4cnc([C@@H]5CCCN5C(=O)C(NC(=O)OC)C5CCOC6(CC6)C5)[nH]4)cn3)cc2)[nH]1)C1CCOC2(CC2)C1` (stereo partly drawn) [OL6, methyl (2-((2S)-2-(5-(6-(4-(2-((2S)-1-(((methoxycarbonyl)amino)(4-oxaspiro[2.5]oct-7-yl)acetyl)pyrrolidin-2-yl)-1H-imidazol-5-yl)phenyl)pyridin-3-yl)-1H-imidazol-2-yl)pyrrolidin-1-yl)-1-(4-oxaspiro[2.5]oct-7-yl)-2-oxoethyl)carbamate], for which the EC50 lay within 0.1 to 0.9 nM.

Still in this assay, the particulars now being: read-out: Range: EC50 ranges against HCV 1b.
`COC(=O)NC(C(=O)N1C(c2nc(Cl)c(-c3ccc(-c4ccc(-c5[nH]c(C6CC7CC7N6C(=O)C(NC(=O)OC)C6CCOC7(CC7)C6)nc5Cl)cc4)cc3)[nH]2)CC2CC21)C1CCOC2(CC2)C1` [OL5, dimethyl (((1R,1′R,3S,3′S,5R,5′R)-3,3′-(5,5′-([1,1′-biphenyl]-4,4′-diyl)bis(4-chloro-1H-imidazole-5,2-diyl))bis(2-azabicyclo[3.1.0]hexane-3,2-diyl))bis(2-oxo-1-(4-oxaspiro[2.5]octan-7-yl)ethane-2,1-diyl))dicarbamate]: the EC50 was in the range of 0.00501 to 0.1 nM.
